Results: patent US20240309014A1, “MACROCYCLIC COMPOUNDS AND USES THEREOF” (President and Fellows of Harvard College, priority 2017, published 2024)

Legend:
[1] = tested on: human squamous cell carcinoma of the head and neck (SCCHN) cell line FaDu; test: FaDu growth inhibition assay; type: cell-based; details: 3 days incubation, CellTiter-Glo
Protocol: (§1) In this assay, the growth inhibitory activity of test compounds in a human squamous cell carcinoma of the head and neck (SCCHN) cell line FaDu was measured. FaDu cells were maintained in an RPMI-1640 (Wako Pure Chemical Industries, Ltd., 187-02021) medium containing 10% fetal bovine serum (FBS: Nichirei, 12D168), and penicillin and streptomycin in a 5% CO2 incubator (37° C.). To each well of a 96 well plate (Becton, Dickinson and Company, 353219), 75 μL of FaDu cell suspension adjusted to a concentration of 4×10^4 cells/mL with the culture medium was added, and the cells were incubated overnight in a 5% CO2 incubator (37° C.). On the next day, 25 μL of Compound (1) or Halichondrin B in three-fold dilution series suspended in the culture medium was added to each well, and the resultant was incubated for 3 days in a 5% CO2 incubator (37° C.). Then, cell viability was determined by CellTiter-Glo® Luminescent Cell Viability Assay (Promega) with EnVision 2103 Multilabel Reader (Perkin-Elmer, Wellesley, MA). Value of the wells containing cells without adding the test compounds was defined as 100% and the value of the wells containing no cells was defined as 0%. The concentration of the test compound necessary for inhibiting the cell growth by 50% (i.e., an IC50 value) was calculated, and shown in Table 1.

[2] = tested on: human breast cancer cell line MDA-MB231; test: MDA-MB231 growth inhibition assay; type: cell-based; details: 3 days incubation, CellTiter-Glo
Protocol: as §1, with “breast cancer” for “squamous cell carcinoma of the head and neck (SCCHN)”, “MDA-MB231” for “FaDu”, “Dulbecco's Modified Eagle's medium” for “an RPMI-1640”, “044-29765)” for “187-02021)”, “2.” for “1.”

[3] = tested on: human breast cancer cell line HCC1954; test: HCC1954 growth inhibition assay (Test Example 3); type: cell-based; details: 3 days incubation, CellTiter-Glo
Protocol: In this assay, the growth inhibitory activity of test compounds in a human breast cancer cell line HCCl954 was measured. HCC1954 cells were maintained in an RPMI-1640 medium modified to contain 2 mM L-glutamine, 10 mM HEPES, 1 mM sodium pyruvate, 4500 mg/L glucose, and 1500 mg/L sodium bicarbonate (ATCC 30-2001) containing 10% fetal bovine serum (FBS: Nichirei, 12D168), and penicillin and streptomycin in a 5% CO2 incubator (37° C.). To each well of a 96 well plate (Becton, Dickinson and Company, 353219), 75 μL of HCC1954 cell suspension adjusted to a concentration of 4×10^4 cells/mL with the culture medium was added, and the cells were incubated overnight in a 5% CO2 incubator (37° C.). On the next day, 25 μL of Compound (1) or Halichondrin B in three-fold dilution series suspended in the culture medium was added to each well, and the resultant was incubated for 3 days in a 5% CO2 incubator (37° C.). Then, cell viability was determined by CellTiter-Glo® Luminescent Cell Viability Assay (Promega) with EnVision 2103 Multilabel Reader (Perkin-Elmer, Wellesley, MA). Value of the wells containing cells without adding the test compounds was defined as 100% and the value of the wells containing no cells was defined as 0%. The concentration of the test compound necessary for inhibiting the cell growth by 50% (i.e., an IC50 value) was calculated, and shown in Table 3.

[4] = tested on: CD31-positive vessel in FaDu tumor; test: Effect on CD31-positive vessel in the FaDu subcutaneous model (Test Example 9); type: in vivo, nude mice; details: five days after administration
Protocol: A human squamous cell carcinoma of the head and neck (SCCHN) cell line FaDu, which had been cultured in an RPMI-1640 medium containing 10% FBS, and penicillin and streptomycin, was adjusted to a concentration of 5×10^7 cells/mL with PBS to prepare a cell suspension. The cell suspension was inoculated in a volume of 100 μL into a subcutaneous part of a right flank of nude mice, 7 weeks of ages (CAnN.Cg-Foxnlnu/CrlCrlj, female, Charles River Laboratories Japan, Inc.). Ten days after cell inoculation, a test compound in saline with 100 μM of hydroxypropyl-β-cyclodextrin was intravenously administered at doses from ½ MTD to MTD. The experiment was conducted on groups each consisting of 3 mice. Five days after administration, tumor samples were collected and fixed with IHC Zinc Fixative (BD Pharmingen) at 4° C. for 24 hr. Paraffin-embedded tissues were sectioned ([…]), mounted on positively charged slides, and air-dried. Immunohistochemical staining of CD31 was conducted using Ventana autostainer model Discover XT (Roche Diagnostics) according to the manufacture's protocol. Sections were deparaffinized, conditioned and the antigens were retrieved with CC1 (Ventana Medical Systems). Slides were blocked with Blocker A and Blocker B (Endogenous biotin blocking kit, Roche Diagnostics). Rat anti-mouse IgG CD31 antibody (Dianova GmbH) was applied at 2 μg/mL. Sections were incubated with the antibody for 6 hr, followed by 32 minutes incubation with biotinylated anti-rat IgG antibody (Jackson ImmunoResearch Laboratories) at 2.2 μg/mL. The detection was performed with Streptavidin-HRP D for 16 min, followed by incubation with DAB D and DAB H2O2 D (DABMap kit, Ventana Medical Systems, Inc) for 8 min. Slides were counterstained with Hematoxylin II (Roche Diagnostics) for 16 min, followed by incubation with Bluing reagent for 4 min. Sections were dehydrated in graded ethanols, defatted in xylene replacement and covered with DPX (Merck KGaA).
Immunostained slides were scanned using Vectra 2 Automated Slide Imaging System (Perkin Elmer Inc.). The number of blood vessels in the whole tumor was quantified by counting the CD31-positive objects using in Form 2 software (PerkinElmer Inc.) Area of the tumor region was measured by assessing the hematoxylin-staining area using inform 2 software (PerkinElmer Inc.) The number of blood vessels was normalized by the area of the tumor region. An increase rate of the blood vessel number of the test compound-dosing group was calculated with the below formula, and shown in Table 9.

[5] = MTD i.v. (Halichondrin B 0.05 mg/kg, Compound (1) 0.20 mg/kg)
[6] = ½ MTD i.v. (Halichondrin B 0.025 mg/kg, Compound (1) 0.10 mg/kg)

SMILES	IC50 ([1]; Homo sapiens, FaDu, 72 h)	IC50 ([2]; Homo sapiens, MDA-MB-231, 72 h)	IC50 ([3]; Homo sapiens, HCC1954, 72 h)	Increase rate of blood vessel number (%) [4, 5]	Increase rate of blood vessel number (%) [4, 6]	IC50 [1]	IC50 [2]	IC50 [3]
C=C1C[C@@H]2CC[C@@]34C[C@H]5O[C@H]6[C@@H](O3)[C@H]3O[C@H](CC[C@@H]3O[C@H]6C5O4)CC(=O)O[C@@H]3[C@@H](C)[C@@H]4O[C@@H]5C[C@]6(C[C@@H]7O[C@]8(C[C@H](C)[C@@H]9O[C@H](CN)[C@H](O)C[C@@H]9O8)C[C@H](C)[C@@H]7O6)O[C@@H]5C[C@@H]4O[C@H]3C[C@H]3O[C@@H](CC[C@@H]1O2)C[C@@H](C)C3=C (stereo in doubt) [Compound (1)]	0.0714 nM	0.109 nM	0.0668 nM	154%	69%			
C=C1C[C@@H]2CC[C@@]34C[C@H]5O[C@H]6[C@@H](O3)[C@H]3O[C@H](CC[C@@H]3O[C@H]6[C@H]5O4)CC(=O)O[C@@H]3[C@@H](C)[C@@H]4O[C@@H]5C[C@]6(C[C@@H]7O[C@]8(C[C@H](C)[C@@H]9O[C@H]([C@@H](O)C[C@@H](O)CO)C[C@@H]9O8)C[C@H](C)[C@@H]7O6)O[C@@H]5C[C@@H]4O[C@H]3C[C@H]3O[C@@H](CC[C@@H]1O2)C[C@@H](C)C3=C [Halichondrin B, reference compound]				39%	31%	0.124 nM	1 nM	0.154 nM
